Test results reported in patent US8680052B1, “Methods of treating, reducing the incidence of, and/or preventing ischemic events” (The Medicines Company, priority 2013, dated 2014).
Read-outs that look alike come from different tables or passages of the source.

Tested on: patients undergoing percutaneous coronary intervention (PCI)
Conditions: for OR (95% CI): All-cause mortality / OR (95% CI): IDR / OR (95% CI): MI / OR (95% CI): Mortality/MI/IDR / OR (95% CI): Mortality/Q-wave MI/IDR / OR (95% CI): Mortality/Q-wave MI/Stent thrombosis / OR (95% CI): Q-wave MI / OR (95% CI): Stent thrombosis / OR (95% CI): Stroke / OR (95% CI): Mortality/MI/IDR (primary endpoint): cangrelor vs comparator arm; for Mortality/Q-wave MI/IDR / Mortality/Q-wave MI/Stent thrombosis: exploratory; for Angiographic complications (site reported): Abrupt vessel closure / Angiographic complications (site reported): Acute stent thrombosis / Angiographic complications (site reported): Need for urgent CABG / Angiographic complications (site reported): New thrombus or suspected thrombus / Angiographic complications (site reported): Threatened abrupt closure / Angiographic complications (site reported): Unsuccessful procedure: index PCI
[1] = 48-hour, MITT, listed as cangrelor

Procedure: The diagnosis of non-ST-segment elevation myocardial infarction required troponin I or T greater than the upper limit of normal within 24 hours of randomization (or if troponin results were unavailable at that time, creatine kinase-myocardial band isoenzyme [CK-MB] greater than the upper limit of normal). The diagnosis of unstable angina required ischemic chest discomfort occurring at rest and lasting ≧10 minutes within the 24 hours prior to randomization and dynamic electrocardiographic changes; age ≧65 years and/or diabetes mellitus were also required.
The primary efficacy endpoint was the composite of mortality, myocardial infarction, or ischemia-driven revascularization at 48 hours. The primary analysis was performed on a modified intent-to-treat population. Confirmatory analyses were performed on an intent-to-treat population. Secondary endpoints included the individual rates of mortality, myocardial infarction, new Q-wave myocardial infarction, ischemia-driven revascularization, abrupt vessel closure, or stroke at 48 hours. Mortality at 30 days and 1 year was also recorded. The clinical events committee adjudicated myocardial infarction, Q-wave myocardial infarction, ischemia-driven revascularization, stent thromboses, and stroke (ischemic or hemorrhagic). The definition of stent thrombosis was similar to the Academic Research Consortium definition of definite stent thrombosis. After review of the prespecified analyses, two exploratory endpoints less reliant on periprocedural biomarker ascertainment were examined. The exploratory endpoints, which were composed of prespecified and adjudicated endpoints, were the composite of mortality, Q-wave myocardial infarction, or ischemia-driven revascularization and the composite of mortality, Q-wave myocardial infarction, or stent thrombosis. Bleeding and adverse events through 48 hours were compared.
All efficacy analyses were performed on the modified intent-to-treat population, defined as all randomized patients who received at least one dose of study drug and underwent the index PCI. All safety-related analyses were performed on the safety population, which included all patients who received at least one dose of assigned study drug. Patients in the safety analyses were assigned to a treatment arm based on treatment actually received, not as randomized. Intent-to-treat analyses are also presented for full disclosure of results. All statistical tests were two-tailed using a level of significance of 0.05. […] Logistic regression was also used to analyze the majority of the remaining secondary endpoints.

Compound: CSCCNc1nc(SCCC(F)(F)F)nc2c1ncn2[C@@H]1O[C@H](COP(=O)(O)OP(=O)(O)C(Cl)(Cl)P(=O)(O)O)[C@@H](O)[C@H]1O [Cangrelor, cangrelor]
- All-cause mortality (30-day, ITT): 36 (1.3) no. (%)
- IDR (30-day, ITT): 37 (1.4) no. (%)
- MI (30-day, ITT): 190 (7.1) no. (%)
- Mortality/MI/IDR (30-day, ITT): 230 (8.6) no. (%)
- Q-wave MI (30-day, ITT): 8 (0.3) no. (%)
- Stent thrombosis (30-day, ITT): 15 (0.6) no. (%)
- OR (95% CI): All-cause mortality (30-day, ITT): 0.754 (0.487, 1.167)
- OR (95% CI): IDR (30-day, ITT): 0.743 (0.483, 1.142)
- OR (95% CI): MI (30-day, ITT): 0.924 (0.752, 1.135)
- OR (95% CI): Mortality/MI/IDR (30-day, ITT): 0.885 (0.734, 1.067)
- OR (95% CI): Mortality/Q-wave MI/IDR (30-day, ITT): 0.718 (0.524, 0.984)
- OR (95% CI): Mortality/Q-wave MI/Stent thrombosis (30-day, ITT): 0.648 (0.453, 0.927)
- OR (95% CI): Q-wave MI (30-day, ITT): 0.526 (0.222, 1.242)
- OR (95% CI): Stent thrombosis (30-day, ITT): 0.508 (0.272, 0.950)
- Mortality/Q-wave MI/IDR (30-day, ITT): 69 (2.6) no. (%)
- Mortality/Q-wave MI/Stent thrombosis (30-day, ITT): 51 (1.9) no. (%)
- All-cause mortality (30-day, MITT): 33 (1.2) no. (%)
- IDR (30-day, MITT): 37 (1.4) no. (%)
- MI (30-day, MITT): 189 (7.1) no. (%)
- Mortality/MI/IDR (30-day, MITT): 226 (8.5) no. (%)
- Q-wave MI (30-day, MITT): 8 (0.3) no. (%)
- Stent thrombosis (30-day, MITT): 15 (0.6) no. (%)
- OR (95% CI): All-cause mortality (30-day, MITT): 0.725 (0.461, 1.140)
- OR (95% CI): IDR (30-day, MITT): 0.796 (0.515, 1.231)
- OR (95% CI): MI (30-day, MITT): 0.929 (0.756, 1.142)
- OR (95% CI): Mortality/MI/IDR (30-day, MITT): 0.892 (0.739, 1.078)
- OR (95% CI): Mortality/Q-wave MI/IDR (30-day, MITT): 0.730 (0.528, 1.008)
- OR (95% CI): Mortality/Q-wave MI/Stent thrombosis (30-day, MITT): 0.647 (0.447, 0.935)
- OR (95% CI): Q-wave MI (30-day, MITT): 0.566 (0.237, 1.352)
- OR (95% CI): Stent thrombosis (30-day, MITT): 0.529 (0.282, 0.993)
- Mortality/Q-wave MI/IDR (30-day, MITT): 66 (2.5) no. (%)
- Mortality/Q-wave MI/Stent thrombosis (30-day, MITT): 48 (1.8) no. (%)
- All-cause mortality (30-day, Safety population): 34 (1.3) no. (%)
- IDR (30-day, Safety population): 37 (1.4) no. (%)
- MI (30-day, Safety population): 188 (7.1) no. (%)
- Mortality/MI/IDR (30-day, Safety population): 226 (8.5) no. (%)
- Q-wave MI (30-day, Safety population): 8 (0.3) no. (%)
- Stent thrombosis (30-day, Safety population): 15 (0.6) no. (%)
- OR (95% CI): All-cause mortality (30-day, Safety population): 0.747 (0.477, 1.170)
- OR (95% CI): IDR (30-day, Safety population): 0.779 (0.504, 1.202)
- OR (95% CI): MI (30-day, Safety population): 0.913 (0.743, 1.122)
- OR (95% CI): Mortality/MI/IDR (30-day, Safety population): 0.884 (0.732, 1.067)
- OR (95% CI): Mortality/Q-wave MI/IDR (30-day, Safety population): 0.732 (0.531, 1.010)
- OR (95% CI): Mortality/Q-wave MI/Stent thrombosis (30-day, Safety population): 0.651 (0.452, 0.938)
- OR (95% CI): Q-wave MI (30-day, Safety population): 0.528 (0.224, 1.248)
- OR (95% CI): Stent thrombosis (30-day, Safety population): 0.529 (0.282, 0.993)
- Mortality/Q-wave MI/IDR (30-day, Safety population): 67 (2.5) no. (%)
- Mortality/Q-wave MI/Stent thrombosis (30-day, Safety population): 49 (1.8) no. (%)
- All-cause mortality (48-hour, ITT): 8 (0.3) no. (%)
- IDR (48-hour, ITT): 19 (0.7) no. (%)
- MI (48-hour, ITT): 177 (6.6) no. (%)
- Mortality/MI/IDR (48-hour, ITT): 187 (6.9) no. (%)
- Q-wave MI (48-hour, ITT): 4 (0.1) no. (%)
- Stent thrombosis (48-hour, ITT): 5 (0.2) no. (%)
- Stroke (48-hour, ITT): 7 (0.3) no. (%)
- OR (95% CI): All-cause mortality (48-hour, ITT): 0.415 (0.181, 0.950)
- OR (95% CI): IDR (48-hour, ITT): 0.721 (0.398, 1.307)
- OR (95% CI): MI (48-hour, ITT): 0.906 (0.734, 1.120)
- OR (95% CI): Mortality/MI/IDR (48-hour, ITT): 0.859 (0.701, 1.054)
- OR (95% CI): Mortality/Q-wave MI/IDR (48-hour, ITT): 0.558 (0.341, 0.915)
- OR (95% CI): Mortality/Q-wave MI/Stent thrombosis (48-hour, ITT): 0.409 (0.224, 0.749)
- OR (95% CI): Q-wave MI (48-hour, ITT): 0.439 (0.135, 1.428)
- OR (95% CI): Stent thrombosis (48-hour, ITT): 0.308 (0.113, 0.842)
- OR (95% CI): Stroke (48-hour, ITT): 1.155 (0.388, 3.442)
- Mortality/Q-wave MI/IDR (48-hour, ITT): 25 (0.9) no. (%)
- Mortality/Q-wave MI/Stent thrombosis (48-hour, ITT): 15 (0.6) no. (%)
- All-cause mortality (48-hour, MITT): 6 (0.2) no. (%)
- IDR (48-hour, MITT): 19 (0.7) no. (%)
- MI (48-hour, MITT): 177 (6.7) no. (%)
- Mortality/MI/IDR (primary endpoint) (48-hour, MITT): 185 (7.0) no. (%)
- Q-wave MI (48-hour, MITT): 4 (0.2) no. (%)
- Stent thrombosis (48-hour, MITT): 5 (0.2) no. (%)
- Stroke (48-hour, MITT): 7 (0.3) no. (%)
- OR (95% CI): All-cause mortality (48-hour, MITT): 0.330 (0.131, 0.833)
- OR (95% CI): IDR (48-hour, MITT): 0.786 (0.430, 1.439)
- OR (95% CI): MI (48-hour, MITT): 0.917 (0.742, 1.133)
- OR (95% CI): Mortality/MI/IDR (primary endpoint) (48-hour, MITT): 0.867 (0.706, 1.065)
- OR (95% CI): Mortality/Q-wave MI/IDR (48-hour, MITT): 0.554 (0.332, 0.926)
- OR (95% CI): Mortality/Q-wave MI/Stent thrombosis (48-hour, MITT): 0.377 (0.199, 0.717)
- OR (95% CI): Q-wave MI (48-hour, MITT): 0.497 (0.149, 1.652)
- OR (95% CI): Stent thrombosis (48-hour, MITT): 0.310 (0.113, 0.847)
- OR (95% CI): Stroke (48-hour, MITT): 1.394 (0.442, 4.398)
- OR (95% CI): All-cause mortality [1]: 0.33
- OR (95% CI): Mortality/MI/IDR (primary endpoint) [1]: 0.87
- OR (95% CI): Stent thrombosis [1]: 0.31
- Mortality/Q-wave MI/IDR (48-hour, MITT): 23 (0.9) no. (%)
- Mortality/Q-wave MI/Stent thrombosis (48-hour, MITT): 13 (0.5) no. (%)
- OR (95% CI): All-cause mortality (48-hour, Safety population): 0.385 (0.161, 0.924)
- OR (95% CI): IDR (48-hour, Safety population): 0.754 (0.414, 1.373)
- OR (95% CI): MI (48-hour, Safety population): 0.901 (0.729, 1.113)
- OR (95% CI): Mortality/MI/IDR (48-hour, Safety population): 0.858 (0.699, 1.053)
- OR (95% CI): Mortality/Q-wave MI/IDR (48-hour, Safety population): 0.564 (0.341, 0.935)
- OR (95% CI): Mortality/Q-wave MI/Stent thrombosis (48-hour, Safety population): 0.395 (0.212, 0.735)
- OR (95% CI): Q-wave MI (48-hour, Safety population): 0.441 (0.136, 1.435)
- OR (95% CI): Stent thrombosis (48-hour, Safety population): 0.310 (0.113, 0.846)
- OR (95% CI): Stroke (48-hour, Safety population): 1.394 (0.442, 4.396)
- Mortality/Q-wave MI/IDR (48-hour, Safety population): 24 (0.9) no. (%)
- Mortality/Q-wave MI/Stent thrombosis (48-hour, Safety population): 14 (0.5) no. (%)
- All-cause mortality (48-hour, safety population): 7 (0.3) no. (%)
- IDR (48-hour, safety population): 19 (0.7) no. (%)
- MI (48-hour, safety population): 176 (6.6) no. (%)
- Mortality/MI/IDR (48-hour, safety population): 185 (7.0) no. (%)
- Q-wave MI (48-hour, safety population): 4 (0.2) no. (%)
- Stent thrombosis (48-hour, safety population): 5 (0.2) no. (%)
- Stroke (48-hour, safety population): 7 (0.3) no. (%)
- Rates of stent thrombosis (48 hours): 0.2%
- rate of mortality at 48 hours (48 hours): 0.2%
- primary endpoint (mortality, myocardial infarction, or ischemia-driven revascularization), patients with event (48 hours, MITT): 7.0%
- Angiographic complications (site reported): Abrupt vessel closure (ITT): 13 (0.5)
- Angiographic complications (site reported): Acute stent thrombosis (ITT): 1 (0.0)
- Angiographic complications (site reported): Need for urgent CABG (ITT): 5 (0.2)
- Angiographic complications (site reported): New thrombus or suspected thrombus (ITT): 14 (0.5)
- Angiographic complications (site reported): Threatened abrupt closure (ITT): 10 (0.4)
- Angiographic complications (site reported): Unsuccessful procedure (ITT): 84 (3.1)
- Angiographic complications (site reported): Abrupt vessel closure (MITT): 13 (0.5)
- Angiographic complications (site reported): Acute stent thrombosis (MITT): 1 (0.0)
- Angiographic complications (site reported): Need for urgent CABG (MITT): 5 (0.2)
- Angiographic complications (site reported): New thrombus or suspected thrombus (MITT): 14 (0.5)
- Angiographic complications (site reported): Threatened abrupt closure (MITT): 10 (0.4)
- Angiographic complications (site reported): Unsuccessful procedure (MITT): 81 (3.1)
- Angiographic complications (site reported): Abrupt vessel closure (Safety population): 13 (0.5)
- Angiographic complications (site reported): Acute stent thrombosis (Safety population): 1 (0.0)
- Angiographic complications (site reported): Need for urgent CABG (Safety population): 5 (0.2)
- Angiographic complications (site reported): New thrombus or suspected thrombus (Safety population): 14 (0.5)
- Angiographic complications (site reported): Threatened abrupt closure (Safety population): 10 (0.4)
- Angiographic complications (site reported): Unsuccessful procedure (Safety population): 81 (3.1)
- primary efficacy endpoint (subgroup of 1659 patients without baseline troponin elevation): 4.6%
- OR, primary efficacy endpoint (subgroup of 1659 patients without baseline troponin elevation, cangrelor vs placebo): 0.62
